Read-outs that look alike come from different tables or passages of the source.
What was measured:
[1] = U.S. Pat. No. 4,831,034; cited from earlier work
serotonin (S2) receptor = target: T1, serotonin (S2) receptor (Rattus norvegicus, UniProt P14842); test: In vitro binding to serotonin (S2) receptor, [3H] ketanserin; set-up: species or system rats; details: for IC50: [3H] ketanserin, rat brain crude synaptosome fraction
T1 construct: Crude synaptosome fractions were prepared from some brain regions in rats for receptor sources; from tissue
T1 sequence (P14842 whole entry): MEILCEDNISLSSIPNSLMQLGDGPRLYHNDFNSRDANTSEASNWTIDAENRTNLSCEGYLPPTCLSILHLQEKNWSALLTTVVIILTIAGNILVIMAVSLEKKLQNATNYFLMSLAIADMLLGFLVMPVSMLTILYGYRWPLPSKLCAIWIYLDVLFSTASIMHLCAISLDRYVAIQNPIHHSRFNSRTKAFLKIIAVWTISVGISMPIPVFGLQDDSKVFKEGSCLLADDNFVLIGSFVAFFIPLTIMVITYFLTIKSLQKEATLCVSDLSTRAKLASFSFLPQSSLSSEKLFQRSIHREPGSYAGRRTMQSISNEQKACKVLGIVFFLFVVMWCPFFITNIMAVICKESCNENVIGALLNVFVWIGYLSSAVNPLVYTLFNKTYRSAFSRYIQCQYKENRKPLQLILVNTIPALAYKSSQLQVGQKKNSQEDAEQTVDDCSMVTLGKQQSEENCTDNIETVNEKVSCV
Procedure: (§1) Dopamine (D2), serotonin (S1, S2) and adrenaline (α1) receptor binding assays were carried out according to the methods of I. Creese et al. [Eur. J. Pharmacol., 46, 377 (1977), S. J. Peroutka et al. [Mol. Pharmacol. 16, 687 (1979)], J. E. Leysen et al. [Mol. Pharmacol., 21, 301 (1982)] and D. C. U'Prichard et al. [Mol. Pharmacol., 13, 454 (1977)], respectively.
(§2) Crude synaptosome fractions were prepared from some brain regions in rats for receptor sources. Radioactive ligands used were [^3 H] spiperone (D2), [^3 H] serotonin (S1), [^3 H] ketanserin (S2) and [^3 H] WB-4101 (α1). The binding assay was performed by incubating aliquots of synaptosome fraction in buffer solution (final volume: 1 ml) containing a [^3 H] labelled ligand and a test compound. The assay was terminated by rapid filtration through Whatman GF/B glass fiber filters attached to a cell-harvester (Brandel) and radioactivity on the filters was counted in a Packard Triscarb scintillation counter. Specific binding was calculated as a difference between amounts of radioactivity in the presence and absence of an unlabelled ligand [spiperone (D2), serotonin (S1), methysergide (S2) and prazosin (α1)]. The IC50 value of the test compounds (concentration causing 50% inhibition of [^3 H] ligand specific binding) was determined by probit analysis.

[2] = tested on: apomorphine-induced vomiting; test: Antagonistic effect on apomorphine-induced vomiting; assay type: in vivo, dogs (Beagle)
Summary of the method: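 Beagle dogs (8–15 kg, 3–4 per group) received test compound, then 0.3 mg/kg apomorphine hydrochloride s.c. two hours later. Vomiting episodes counted over 1 h; percent inhibition calculated against a non-dosed control group.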

adrenaline (α1) receptor = test: In vitro binding to adrenaline (α1) receptor, [3H] WB-4101; set-up: species or system rats; details: [3H] WB-4101, rat brain crude synaptosome fraction
Procedure: as §1, §2

mice = test: Acute toxicity; assay type: in vivo, mice (Std-ddy strain); details: dose 500 mg/kg oral, 7 days observation
Description: A group of 5 male mice (Std-ddy strain, 25-30 g) was used. The test compound was orally administered to the test animal in the form of a 0.5% tragacanth solution or suspension, and for 7 days after the administration of the test compound, the lethality of animals was observed.

dopamine (D2) receptor = target: T2, dopamine (D2) receptor (Rattus norvegicus, UniProt P61169); test: In vitro binding to dopamine (D2) receptor, [3H] spiperone; set-up: species or system rats; details: for IC50: [3H] spiperone, rat brain crude synaptosome fraction, read-out: IC50 D2
T2 construct: Crude synaptosome fractions were prepared from some brain regions in rats for receptor sources; from tissue
T2 sequence (P61169 whole entry): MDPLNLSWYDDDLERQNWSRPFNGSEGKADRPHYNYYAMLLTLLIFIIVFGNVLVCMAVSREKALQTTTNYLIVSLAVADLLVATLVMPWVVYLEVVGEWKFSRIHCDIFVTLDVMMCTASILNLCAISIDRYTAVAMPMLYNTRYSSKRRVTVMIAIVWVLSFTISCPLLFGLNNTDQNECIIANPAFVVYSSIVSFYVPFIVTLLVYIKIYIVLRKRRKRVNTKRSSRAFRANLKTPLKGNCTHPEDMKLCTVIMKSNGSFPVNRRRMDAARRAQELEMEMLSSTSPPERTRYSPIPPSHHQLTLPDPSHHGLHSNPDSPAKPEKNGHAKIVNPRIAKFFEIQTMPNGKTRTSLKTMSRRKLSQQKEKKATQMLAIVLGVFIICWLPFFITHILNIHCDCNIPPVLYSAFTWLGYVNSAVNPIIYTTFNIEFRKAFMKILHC
Procedure: as §1, §2

[3] = tested on: brain monoamine metabolites; test: Increasing effect on concentration of brain monoamine metabolites; assay type: in vivo, mice (Std-ddy strain); details: Mus musculus, 2 h, non-dosed=100
Summary of the method: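 Male Std-ddy mice (25-30 g, n=5) decapitated 2 h after dosing; brain extracts analysed by HPLC with electrochemical detection for DOPAC, HVA, MOPEG and 5-HIAA. Values expressed as % of non-dosed controls (=100).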

serotonin (S1) receptor = test: In vitro binding to serotonin (S1) receptor, [3H] serotonin; set-up: species or system rats; details: rat brain crude synaptosome fraction
Procedure: as §1, §2

[4] = Psychotropic / anti-psychotic (neuroleptic) activity, general statement; details: experiments by the present inventors
[5] = Canis lupus familiaris, sc, apomorphine 0.3 mg/kg s.c. 2 h after compound, read-out: Inhibitory ratio (apomorphine-induced vomiting)
[6] = read-out: DOPAC concentration, % of control
[7] = read-out: HVA concentration, % of control
[8] = read-out: 5-HIAA concentration, % of control
[9] = read-out: MOPEG concentration, % of control

In the case of `Cc1ccc(CN2CCN(c3cc(-c4ccccc4)ccn3)CC2)cc1` [2-[4-(4-methylbenzyl)-1-piperazinyl]-4-phenylpyridine], the “activity as an anti-psychotic drug or as a neuroleptic drug” value [1] is listed as “weak activity”.

Compound `CCN1CCN(c2cc(-c3ccc(F)cc3)c3c(n2)CCCCCC3)CC1` [Example 1a, 2-(4-ethyl-1-piperazinyl)-4-(4-fluorophenyl)-5,6,7,8,9,10-hexahydrocycloocta[b]pyridine] has an IC50 (serotonin (S2) receptor) of 9.9 nM, an inhibition in vivo at 0.2 mg/kg [2, 5] of 100% and an IC50 (adrenaline (α1) receptor) of 83 nM. The “Number of dead animals / Number of test animals” value (mice) was 0/5 and the IC50 (dopamine (D2) receptor) was 24 nM.

`CCN1CCN(c2cc(-c3ccc(F)cc3F)c3c(n2)CCCCCC3)CC1` [Example 2b, 2-(4-ethyl-1-piperazinyl)-4-(2,4-difluorophenyl)-5,6,7,8,9,10-hexahydrocycloocta[b] pyridine] gave a response vs control in vivo at 2 mg/kg [3, 6] of 364%, a response vs control in vivo at 2 mg/kg [3, 7] of 271% and an inhibition in vivo at 0.2 mg/kg [2, 5] of 100%. For the same compound, the “Number of dead animals / Number of test animals” value (mice) was 0/5.

Work on `CCN1CCN(c2cc(-c3ccc(F)cc3)c3c(n2)CCC3)CC1` [Example 6, 2-(4-Ethyl-1-piperazinyl)-4-(4-fluorophenyl)-6,7-dihydro-5H-1-pyrindine] yielded a response vs control in vivo at 10 mg/kg [3, 8] of 103%, a response vs control in vivo at 10 mg/kg [3, 6] of 321% and a response vs control in vivo at 10 mg/kg [3, 7] of 242%. The response vs control in vivo at 10 mg/kg [3, 9] was 115%, the IC50 (serotonin (S2) receptor) was 7.6 nM and the inhibition in vivo at 1 mg/kg ([2]; Canis lupus familiaris, sc, dose 1.0 mg/kg, apomorphine 0.3 mg/kg s.c. 2 h after compound, read-out: Inhibitory ratio (apomorphine-induced vomiting)) was 89%. The IC50 (adrenaline (α1) receptor) was 6.9 nM, the “Number of dead animals / Number of test animals” value (mice) was 0/5 and the IC50 (serotonin (S1) receptor) was 1500 nM. For the same compound, the IC50 (dopamine (D2) receptor) was 19 nM.

In the case of `CCN1CCN(c2cc(-c3ccc(F)cc3)c3c(n2)CCCCC3)CC1` [Example 25, 2-(4-Ethyl-1-piperazinyl)-4-(4-fluorophenyl)-6,7,8,9-tetrahydro-5H-cyclohepta[b]pyridine], the response vs control in vivo at 1 mg/kg [3, 8] is reported as 113%, the response vs control in vivo at 1 mg/kg [3, 6] is reported as 272% and the response vs control in vivo at 1 mg/kg [3, 7] is reported as 207%. For the same compound, the response vs control in vivo at 1 mg/kg [3, 9] was 106%, the IC50 (serotonin (S2) receptor) was 2.3 nM and the inhibition in vivo at 3 mg/kg ([2]; Canis lupus familiaris, sc, dose 3.0 mg/kg, apomorphine 0.3 mg/kg s.c. 2 h after compound, read-out: Inhibitory ratio (apomorphine-induced vomiting)) was 100%. The IC50 (adrenaline (α1) receptor) was 120 nM, the “Number of dead animals / Number of test animals” value (mice) was 0/5 and the IC50 (serotonin (S1) receptor) was 2600 nM. It also gave an IC50 (dopamine (D2) receptor) of 77 nM.

In the case of `Cc1nc(N2CCN(c3ccccc3)CC2)cc(-c2ccc(F)cc2)c1-c1ccc(F)cc1` [Test Compound A, 4,5-Bis-(4-fluorophenyl)-6-methyl-2-(4-phenylpiperazino)pyridine, reference compound], the psychotropic activity [4] is reported as “did not show any psychotropic activity”, the “binding property to serotonin (S2) receptors (in words)” value (serotonin (S2) receptor) is reported as “no binding property” and the IC50 (serotonin (S2) receptor) is reported as over 10000 nM. The inhibition in vivo at 3 mg/kg ([2]; Canis lupus familiaris, sc, 2 h, read-out: Inhibitory ratio (apomorphine-induced vomiting)) was 11%, the “effect on apomorphine-induced vomiting (in words)” value ([2]; dog, in vivo) was “no inhibitory effect” and the IC50 (adrenaline (α1) receptor) was over 10000 nM. The “binding property to dopamine (D2) receptors (in words)” value (dopamine (D2) receptor) was “no binding property” and the IC50 (dopamine (D2) receptor) was over 10000 nM.

From patent US5021421A, “2-(1-Piperazinyl)-4-phenylcycloalkanopyridine derivatives, processes for the production thereof, and pharmaceutical composition containing the same” (Dainippon Pharmaceutical Co., Ltd., priority 1989, dated 1991)
